For the assay, the system named is L1210 leukemia ip in BDF1 mice, survival T/C. Nature of the assay: NCI In Vivo Anticancer Drug Screen. Data for tumor model L1210 Leukemia (intraperitoneal) in B6D2F1 (BDF1) mice. To be noted: endpoint: mean survival time, higher = longer survival. An outline of the steps: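 Value reflects the ratio of survival in compound-treated mice to survival in vehicle-treated controls, with both groups carrying the same transplanted tumor.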

[1] abbreviates: dose: 100.0 mg/kg/injection, schedule: Q01DX009 (ip), vehicle: Klucel (hydroxypropylcellulose) (HPC).
[2] abbreviates: dose: 100.0 mg/kg/injection, schedule: Q04DX003 (ip), vehicle: Klucel (hydroxypropylcellulose) (HPC).
Setting [3] is: dose: 200.0 mg/kg/injection, schedule: Q01DX009 (ip), vehicle: Klucel (hydroxypropylcellulose) (HPC).
Where [4] appears, read: dose: 200.0 mg/kg/injection, schedule: Q04DX003 (ip), vehicle: Klucel (hydroxypropylcellulose) (HPC).
Where [5] appears, read: dose: 400.0 mg/kg/injection, schedule: Q01DX009 (ip), vehicle: Klucel (hydroxypropylcellulose) (HPC).
Where [6] appears, read: dose: 400.0 mg/kg/injection, schedule: Q04DX003 (ip), vehicle: Klucel (hydroxypropylcellulose) (HPC).
[7] abbreviates: dose: 100.0 mg/kg/injection, schedule: Q01DX001 (ip), vehicle: carboxymethylcellulose (CMC).
Setting [8] is: dose: 200.0 mg/kg/injection, schedule: Q01DX001 (ip), vehicle: carboxymethylcellulose (CMC).
[9] abbreviates: dose: 400.0 mg/kg/injection, schedule: Q01DX001 (ip), vehicle: carboxymethylcellulose (CMC).
The mark [10] stands for this setting: dose: 100.0 mg/kg/injection, schedule: Q01DX009 (ip), vehicle: saline with Tween-80.
Where [11] appears, read: dose: 100.0 mg/kg/injection, schedule: Q04DX002 (ip), vehicle: saline with Tween-80.
The mark [12] stands for this setting: dose: 200.0 mg/kg/injection, schedule: Q01DX009 (ip), vehicle: saline with Tween-80.
Where [13] appears, read: dose: 200.0 mg/kg/injection, schedule: Q04DX002 (ip), vehicle: saline with Tween-80.
[14] abbreviates: dose: 400.0 mg/kg/injection, schedule: Q01DX009 (ip), vehicle: saline with Tween-80.
Setting [15] is: dose: 400.0 mg/kg/injection, schedule: Q04DX002 (ip), vehicle: saline with Tween-80.

The structures appear in SMILES notation. Several values for one entry are separate records, joined by “and”; a condition that tells them apart may be missing. Equal entries are not always repeated. Toxic doses and inconclusive results are not listed.

Turning to `O=C(Nc1cc(Cl)ccc1Cl)c1ccccc1Cl`, the T/C was 94 % of control under setting [1]; 102 % of control under setting [2]; 87 % of control under setting [3]; 97 % of control under setting [4]; 92 % of control under setting [5]; 91 % of control under setting [6].
Turning to `Clc1ccc([I+]c2ccc(Cl)c(Cl)c2)cc1Cl`, the T/C (dose: 4.0 mg/kg/injection, schedule: Q01DX015 (ip), vehicle: carboxymethylcellulose (CMC)) was 98 % of control; the T/C (dose: 8.0 mg/kg/injection, schedule: Q01DX015 (ip), vehicle: carboxymethylcellulose (CMC)) was 96 % of control; the T/C (dose: 16.0 mg/kg/injection, schedule: Q01DX015 (ip), vehicle: carboxymethylcellulose (CMC)) was 87 % of control; the T/C (dose: 32.0 mg/kg/injection, schedule: Q01DX015 (ip), vehicle: carboxymethylcellulose (CMC)) is 96 % of control; the T/C under setting [7] was 95 % of control; the T/C under setting [8] was 106 % of control. In addition, under setting [9], the T/C is 111 % of control.
For `CC(C)(C)N=NC1(S(=O)(=O)c2ccccc2)CCCCC1`, the T/C is, setting by setting: under setting [2], 98 % of control; under setting [4], 93 % of control; under setting [6], 91 % of control.
As to `[N-]=[N+]=NC(=O)C1C(c2ccccc2)=C1c1ccccc1`, the T/C runs as follows: (dose: 100.0 mg/kg/injection, schedule: Q01DX001 (ip), vehicle: steriod suspending solution) 93 % of control; (dose: 200.0 mg/kg/injection, schedule: Q01DX001 (ip), vehicle: steriod suspending solution) 106 % of control; (dose: 400.0 mg/kg/injection, schedule: Q01DX001 (ip), vehicle: steriod suspending solution) 98 % of control.
Consider `O=C1/C(=N/O)Cc2ccccc21`, for which the T/C was 91 % of control (dose: 3.13 mg/kg/injection, schedule: Q01DX009 (ip), vehicle: saline with Tween-80); 91 % of control (dose: 6.25 mg/kg/injection, schedule: Q01DX009 (ip), vehicle: saline with Tween-80); 94 % of control (dose: 12.5 mg/kg/injection, schedule: Q01DX009 (ip), vehicle: saline with Tween-80); 102 % of control (dose: 25.0 mg/kg/injection, schedule: Q04DX003 (ip), vehicle: saline with Tween-80); 94 % of control (dose: 50.0 mg/kg/injection, schedule: Q04DX003 (ip), vehicle: saline with Tween-80).
For `CCOP(=O)(O)Cc1c(Cl)c(Cl)c(CP(=O)(O)OCC)c(Cl)c1Cl`, the T/C is 110 % of control (dose: 100.0 mg/kg/injection, schedule: Q01DX001 (ip), vehicle: saline); 104 % of control (dose: 200.0 mg/kg/injection, schedule: Q01DX001 (ip), vehicle: saline); 107 % of control (dose: 400.0 mg/kg/injection, schedule: Q01DX001 (ip), vehicle: saline).
Regarding `CCCCCCCCCc1ccc(OP(Oc2ccccc2)Oc2ccc(CCCCCCCCC)cc2)cc1`, the T/C runs as follows: (dose: 75.0 mg/kg/injection, schedule: Q01DX001 (ip), vehicle: saline) 100 % of control; (dose: 150.0 mg/kg/injection, schedule: Q01DX001 (ip), vehicle: saline) 109 % of control.
For the compound `Cc1cc(=O)[nH]c2ccc(-c3ccc4[nH]c(=O)cc(C)c4c3)cc12`, the T/C is 101 % of control under setting [1]; 102 % of control under setting [2]; 95 % of control under setting [3]; 100 % of control under setting [4]; 95 % of control under setting [5]; 100 % of control under setting [6].
Regarding `Cc1cccc(N/N=C2\CCSc3ccccc32)c1`, the T/C under setting [2] is 95 % of control, the T/C under setting [4] was 98 % of control and the T/C under setting [6] is 104 % of control.
As to `O=Cc1cccs1`, the T/C is, setting by setting: under setting [10], 104 % of control; under setting [11], 93 % of control; under setting [12], 107 % of control; under setting [13], 100 % of control; under setting [14], 118 % of control; under setting [15], 96 % of control.
On to `S=C(Nc1ccccc1)N(C1CCCCC1)C1CCCCC1`, for which the T/C under setting [14] was 158 % of control.
On to `S=C(Nc1ccccc1)N1CCCCC1`, for which the T/C is 97 % of control (dose: 50.0 mg/kg/injection, schedule: Q01DX001 (ip), vehicle: carboxymethylcellulose (CMC)); 100 % of control under setting [7]; 97 % of control under setting [8]; 103 % of control under setting [9].
In the case of `COc1cc([C@@H]2c3cc4c(cc3[C@H](OC(C)=O)[C@H]3COC(=O)[C@@H]23)OCO4)cc(OC)c1OC`, the T/C is, setting by setting: (dose: 33.0 mg/kg/injection, schedule: Q01DX009 (ip), vehicle: saline with Tween-80) 97 % of control; under setting [2], 98 % of control; under setting [4], 90 % of control.
With `Clc1ccc(NC(Nc2ccc(Cl)cc2)C(Cl)(Cl)Cl)cc1`, the T/C was 93 % of control (dose: 50.0 mg/kg/injection, schedule: Q01DX001 (ip), vehicle: Klucel (hydroxypropylcellulose) (HPC)); 93 % of control (dose: 100.0 mg/kg/injection, schedule: Q01DX001 (ip), vehicle: Klucel (hydroxypropylcellulose) (HPC)); 90 % of control (dose: 200.0 mg/kg/injection, schedule: Q01DX001 (ip), vehicle: Klucel (hydroxypropylcellulose) (HPC)).
On to `CC1(C)N=C(N)N=C(N)N1CCCOc1ccc(NC(=O)Nc2cccc(S(=O)(=O)F)c2)cc1`, for which the T/C is 102 % of control (dose: 25.0 mg/kg/injection, schedule: Q01DX001 (ip), vehicle: saline with Tween-80) and 100 % of control (dose: 50.0 mg/kg/injection, schedule: Q01DX001 (ip), vehicle: saline with Tween-80).
With `COc1ccc(OC(=O)Nc2ccccc2OC)cc1`, the T/C is 97 % of control under setting [1]; 98 % of control under setting [2]; 100 % of control under setting [3]; 96 % of control under setting [4]; 95 % of control under setting [5]; 95 % of control under setting [6].
As for `Nc1ccc(SCc2nc3cccc4c3n2CCC4)cc1`, the T/C was 88 % of control under setting [10]; 96 % of control (dose: 100.0 mg/kg/injection, schedule: Q04DX003 (ip), vehicle: saline with Tween-80); 96 % of control under setting [12]; 94 % of control (dose: 200.0 mg/kg/injection, schedule: Q04DX003 (ip), vehicle: saline with Tween-80); 105 % of control under setting [14]; 92 % of control (dose: 400.0 mg/kg/injection, schedule: Q04DX003 (ip), vehicle: saline with Tween-80).
For `CN1CN(C2CCCCC2)CSC1=S`, the T/C was 95 % of control (dose: 100.0 mg/kg/injection, schedule: Q01DX001 (ip), vehicle: acetone); 101 % of control (dose: 100.0 mg/kg/injection, schedule: Q04DX003 (ip), vehicle: acetone); 101 % of control (dose: 100.0 mg/kg/injection, schedule: Q04DX003 (ip), vehicle: saline); 92 % of control (dose: 200.0 mg/kg/injection, schedule: Q01DX001 (ip), vehicle: acetone); 106 % of control (dose: 200.0 mg/kg/injection, schedule: Q04DX003 (ip), vehicle: acetone); 102 % of control (dose: 200.0 mg/kg/injection, schedule: Q04DX003 (ip), vehicle: saline). Moreover, the T/C runs as follows: (dose: 400.0 mg/kg/injection, schedule: Q01DX001 (ip), vehicle: acetone) 100 % of control; (dose: 400.0 mg/kg/injection, schedule: Q04DX003 (ip), vehicle: acetone) 94 % of control; (dose: 400.0 mg/kg/injection, schedule: Q04DX003 (ip), vehicle: saline) 98 % of control.
On to `CC1Oc2ccccc2NC1=O` (centres undefined), for which the T/C is 102 % of control under setting [11], 106 % of control under setting [13] and 98 % of control under setting [15].
In the case of `COc1ccc(Cl)cc1NC(=O)/C=C/c1ccccc1`, the T/C reads like this: (dose: 100.0 mg/kg/injection, schedule: Q01DX001 (ip), vehicle: saline with Tween-80) 95 % of control; under setting [10], 89 % of control; under setting [11], 98 % of control and 90 % of control; (dose: 200.0 mg/kg/injection, schedule: Q01DX001 (ip), vehicle: saline with Tween-80) 92 % of control; under setting [12], 95 % of control and 89 % of control; under setting [13], 96 % of control and 91 % of control. The T/C was 92 % of control under setting [14]; 94 % of control and 86 % of control under setting [15].

The values above are taken from PubChem BioAssay AID248 (DTP/NCI, 2004).
